# Measurements as given in ChEMBL document CHEMBL3885881, “DrugMatrix”.
# Species: Rattus norvegicus
# Assay: DrugMatrix - Regimen: Daily Repeat
# Format: toxicity, organism-based, Sprague-Dawley
# Parameters: regimen Daily Repeat, gender Male, age 6-8 weeks
# Details: in vivo, po, route oral GAVAGE, […]; for ABSOLUTE BASOPHIL / ABSOLUTE EOSINOPHIL / ABSOLUTE LYMPHOCYTE / ABSOLUTE MONOCYTE / ABSOLUTE SEGMENTED NEUTROPHIL / BASOPHIL / EOSINOPHIL / ERYTHROCYTE COUNT / HEMATOCRIT / HEMOGLOBIN / LEUKOCYTE COUNT / LYMPHOCYTE / MEAN CORPUSCULAR HEMOGLOBIN / MEAN CORPUSCULAR HEMOGLOBIN CONCENTRATION / MEAN CORPUSCULAR VOLUME / MONOCYTE / NEUTROPHIL / NUCLEATED RED BLOOD CELLS / PLATELET COUNT: tissue Blood; for ALANINE AMINOTRANSFERASE / ALBUMIN / ALKALINE PHOSPHATASE / ASPARTATE AMINOTRANSFERASE / BLOOD UREA NITROGEN / CARBON DIOXIDE / CHLORIDE / CHOLESTEROL / CREATINE PHOSPHOKINASE / CREATININE / GLUCOSE / LACTATE DEHYDROGENASE / LIPASE / PHOSPHORUS / POTASSIUM / SODIUM / TOTAL BILIRUBIN / TOTAL PROTEIN / URIC ACID: tissue Plasma
# [1] = 3 mg/kg, 120 h, dose level Low, time 5 day
# [2] = 110 mg/kg, 72 h, dose level High, time 3 day
# [3] = 110 mg/kg, 120 h, dose level High, time 5 day
smiles,measurement,setting,value
Cc1cccc(Nc2ccncc2S(=O)(=O)NC(=O)NC(C)C)c1 [TORSEMIDE],ABSOLUTE BASOPHIL,[1],0 CELLS/uL
same,ABSOLUTE EOSINOPHIL,[1],64 CELLS/uL
same,ABSOLUTE LYMPHOCYTE,[1],7502 CELLS/uL
same,ABSOLUTE MONOCYTE,[1],142 CELLS/uL
same,ABSOLUTE SEGMENTED NEUTROPHIL,[1],525.33 CELLS/uL
same,BASOPHIL,[1],0%
same,EOSINOPHIL,[1],0.67%
same,ERYTHROCYTE COUNT,[1],5.57 x10E6/uL
same,HEMATOCRIT,[1],35.4%
same,HEMOGLOBIN,[1],13.63 G/DL
same,LEUKOCYTE COUNT,[1],8.23 x10E3/uL
same,LYMPHOCYTE,[1],91.33%
same,MEAN CORPUSCULAR HEMOGLOBIN,[1],24.57 pg
same,MEAN CORPUSCULAR HEMOGLOBIN CONCENTRATION,[1],38.5 G/DL
same,MEAN CORPUSCULAR VOLUME,[1],63.67 fL
same,MONOCYTE,[1],1.67%
same,NEUTROPHIL,[1],6.33%
same,NUCLEATED RED BLOOD CELLS,[1],0 /100WBC
same,PLATELET COUNT,[1],1174 x10E3/uL
same,ALANINE AMINOTRANSFERASE,[1],54.67 u/L
same,ALBUMIN,[1],4 G/DL
same,ALKALINE PHOSPHATASE,[1],376.67 u/L
same,ASPARTATE AMINOTRANSFERASE,[1],76 u/L
same,BLOOD UREA NITROGEN,[1],11.67 mg/dL
same,CARBON DIOXIDE,[1],31.33 mmol/L
same,CHLORIDE,[1],100 MEQ/L
same,CHOLESTEROL,[1],63.67 mg/dL
same,CREATINE PHOSPHOKINASE,[1],293.67 u/L
same,CREATININE,[1],0.14 mg/dL
same,GLUCOSE,[1],148.67 mg/dL
same,LACTATE DEHYDROGENASE,[1],190.33 u/L
same,LIPASE,[1],10.33 u/L
same,PHOSPHORUS,[1],11.3 mg/dL
same,POTASSIUM,[1],6.36 MEQ/L
same,SODIUM,[1],144.87 MEQ/L
same,TOTAL BILIRUBIN,[1],0.17 mg/dL
same,TOTAL PROTEIN,[1],6.03 G/DL
same,URIC ACID,[1],0.47 mg/dL
same,ABSOLUTE BASOPHIL,[2],0 CELLS/uL
same,ABSOLUTE EOSINOPHIL,[2],0 CELLS/uL
same,ABSOLUTE LYMPHOCYTE,[2],16133.33 CELLS/uL
same,ABSOLUTE MONOCYTE,[2],63.33 CELLS/uL
same,ABSOLUTE SEGMENTED NEUTROPHIL,[2],1136.67 CELLS/uL
same,BASOPHIL,[2],0%
same,EOSINOPHIL,[2],0%
same,ERYTHROCYTE COUNT,[2],5.8 x10E6/uL
same,HEMATOCRIT,[2],36.3%
same,HEMOGLOBIN,[2],14.23 G/DL
same,LEUKOCYTE COUNT,[2],17.33 x10E3/uL
same,LYMPHOCYTE,[2],93.33%
same,MEAN CORPUSCULAR HEMOGLOBIN,[2],24.53 pg
same,MEAN CORPUSCULAR HEMOGLOBIN CONCENTRATION,[2],39.23 G/DL
same,MEAN CORPUSCULAR VOLUME,[2],62.57 fL
same,MONOCYTE,[2],0.33%
same,NEUTROPHIL,[2],6.33%
same,NUCLEATED RED BLOOD CELLS,[2],0 /100WBC
same,PLATELET COUNT,[2],1008.33 x10E3/uL
same,ALANINE AMINOTRANSFERASE,[2],60.33 u/L
same,ALBUMIN,[2],4.17 G/DL
same,ALKALINE PHOSPHATASE,[2],282 u/L
same,ASPARTATE AMINOTRANSFERASE,[2],86 u/L
same,BLOOD UREA NITROGEN,[2],29.33 mg/dL
same,CARBON DIOXIDE,[2],33.33 mmol/L
same,CHLORIDE,[2],93.33 MEQ/L
same,CHOLESTEROL,[2],69.33 mg/dL
same,CREATINE PHOSPHOKINASE,[2],98.67 u/L
same,CREATININE,[2],0.32 mg/dL
same,GLUCOSE,[2],148 mg/dL
same,LACTATE DEHYDROGENASE,[2],104.67 u/L
same,LIPASE,[2],12 u/L
same,PHOSPHORUS,[2],8.13 mg/dL
same,POTASSIUM,[2],5.2 MEQ/L
same,SODIUM,[2],142.37 MEQ/L
same,TOTAL BILIRUBIN,[2],0.2 mg/dL
same,TOTAL PROTEIN,[2],5.37 G/DL
same,URIC ACID,[2],1.2 mg/dL
same,ABSOLUTE BASOPHIL,[3],0 CELLS/uL
same,ABSOLUTE EOSINOPHIL,[3],0 CELLS/uL
same,ABSOLUTE LYMPHOCYTE,[3],12824.33 CELLS/uL
same,ABSOLUTE MONOCYTE,[3],353.67 CELLS/uL
same,ABSOLUTE SEGMENTED NEUTROPHIL,[3],788.67 CELLS/uL
same,BASOPHIL,[3],0%
same,EOSINOPHIL,[3],0%
same,ERYTHROCYTE COUNT,[3],6.15 x10E6/uL
same,HEMATOCRIT,[3],38.4%
same,HEMOGLOBIN,[3],14.97 G/DL
same,LEUKOCYTE COUNT,[3],13.97 x10E3/uL
same,LYMPHOCYTE,[3],92%
same,MEAN CORPUSCULAR HEMOGLOBIN,[3],24.37 pg
same,MEAN CORPUSCULAR HEMOGLOBIN CONCENTRATION,[3],38.97 G/DL
same,MEAN CORPUSCULAR VOLUME,[3],62.5 fL
same,MONOCYTE,[3],2.33%
same,NEUTROPHIL,[3],5.67%
same,NUCLEATED RED BLOOD CELLS,[3],0.33 /100WBC
same,PLATELET COUNT,[3],1188.33 x10E3/uL
same,ALANINE AMINOTRANSFERASE,[3],70 u/L
same,ALBUMIN,[3],4.5 G/DL
same,ALKALINE PHOSPHATASE,[3],395.67 u/L
same,ASPARTATE AMINOTRANSFERASE,[3],104 u/L
same,BLOOD UREA NITROGEN,[3],29 mg/dL
same,CARBON DIOXIDE,[3],38.33 mmol/L
same,CHLORIDE,[3],86.33 MEQ/L
same,CHOLESTEROL,[3],65.33 mg/dL
same,CREATINE PHOSPHOKINASE,[3],234.67 u/L
same,CREATININE,[3],0.3 mg/dL
same,GLUCOSE,[3],176 mg/dL
same,LACTATE DEHYDROGENASE,[3],220.33 u/L
same,LIPASE,[3],10.67 u/L
same,PHOSPHORUS,[3],8.93 mg/dL
same,POTASSIUM,[3],4.3 MEQ/L
same,SODIUM,[3],142.87 MEQ/L
same,TOTAL BILIRUBIN,[3],0.1 mg/dL
same,TOTAL PROTEIN,[3],6.83 G/DL
same,URIC ACID,[3],0.6 mg/dL
